{"source": "patent US20250338851A1", "about": "“Boosted IPBC for Wet-State Bacterial Control” (Troy Technology II, Inc., priority 2021, published 2025)", "format_in_all_cases": "cell-based", "key": {"[1]": {"tested_on": "Pseudomonas aeruginosa (ATCC #10145)", "experiment": "Growth curves (OD600)", "description": "To generate growth curves, overnight cultures of Pseudomonas aeruginosa (ATCC #10145) from Plate Count Agar were lifted and resuspended in dH2O and adjusted to OD600=0.01 with sterile Mueller Hinton Broth (MHB). This culture was distributed into wells of an uncovered 96-well plate with the indicated biocides. The OD600 was then measured initially and then every 30′ for 16 hours at 37° C. with constant double orbital shaking. Due to the opacity of the samples dosed with some test compounds, the curves were generated by background subtracting from wells containing sterile MHB and then subtracted from their initial (t=0) measurement."}, "[2]": {"tested_on": "Pseudomonas aeruginosa (ATCC #10145)", "experiment": "NPN uptake assay (membrane permeability)", "details": "1% w/v solutions", "description": "The NPN uptake assay was performed roughly as previously described. See Helander I. M., Mattila-Sandholm T., Fluorometric assessment of gram-negative bacterial permeabilization, J. Appl. Microbiol. […] Next, the cells were centrifuged (10,000 g, 5 minutes) washed twice with assay buffer (5 mM HEPES-KOH, 5 mM glucose, pH 7.2) and resuspended in assay buffer to OD600=1. 100 microliters of washed cells in assay buffer was then mixed with 100 microliters of assay buffer containing 20 μM NPN in a 96-well optical bottom black plate (Thermo). Two microliters of the test substances were then added, briefly mixed, and then placed in a plate reader to monitor fluorescence (excitation 350 nm, emission 420 nm) at one minute intervals for 10 minutes. Controls containing no cells or water-only were included in the assay. NPN uptake was calculated using the formula below at each time point and averaged over all time-points and three replicates."}, "[3]": {"tested_on": "bacterial consortium: Alcaligenes faecalis (ATCC #25094), Enterobacter aerogenes (ATCC #13048), Escherichia coli (ATCC #11229), Pseudomonas aeruginosa (ATCC …)", "experiment": "Bacterial challenge testing (standard)", "details": "paint challenge testing (Table A9)", "description": "Bacterial and fungal challenge testing was performed following Troy's standard challenge test procedure SOP MI-07. […] Where indicated, additional bacterial organisms were added to the inoculum such that each organism in the inoculum provided equal CFU. […] Fungal consortia were prepared on Malt Agar slants and diluted to 10^6 spores/mL using a hemocytometer to count before use. Each mixture was prepared shortly before each inoculation. Inoculations were performed by adding 0.5 mL to 50 g of the indicated test sample, giving either ˜10^6 CFU/g of bacteria or ˜10^4 spores/g of fungi per challenge. Viability readings were performed at the indicated intervals following each challenge by applying a small amount of the test sample onto PCA (for bacteria) or Malt Agar (for fungus). Bacterial plates were then incubated at 32° C. for 3-5 days, and Malt Agar plates were incubated for 1 week at 28° C. before reading. Viability plates were evaluated with a semi-quantitative scale. This scale estimates the approximate CFU/g by visual assessment of the colony density along the streak lines. Readings are recorded as the average of two duplicate semi-quantitative readings from “0” to “4.” Samples were mixed before every viability reading and after every inoculation.\n(§1) Challenge test scoring was done by the weighted sum of squares for each of the twelve data points collected for each test sample. The weighting was done proportional to the streak day, with day 1 weighted at 10%, day 2 weighted at 20%, and day 3 weighted at 70%. The sum of all 12 values is then taken and divided by the score of the unprotected sample to achieve the total growth score. The reported “weighted performance” score is 1 minus the growth score."}, "[4]": {"tested_on": "Burkholderia sp. Troy JZ2", "experiment": "Minimum inhibitory concentration testing (microbroth dilution) and synergy index", "details": "96 well microbroth dilution, MHB, 24 hours of incubation", "description": "(§2) MICs were determined via microbroth dilution using the following specific test parameters:\n(§3) Necessary organism dilutions via OD600 were calculated based on OD600 of 1.0 being equivalent to 8×10^8 CFU/mL. Biocide dilutions were performed in 2-fold increments for each assay.\n(§4) Synergy index (SI) scores were calculated according to the mass action equation below: […]\n(§5) S.I.[MIC[A]in-blend/MIC[A]alone]+[MIC[B]in-blend/MIC[B]alone]\n(§6) Combinations of ingredients were determined to be synergistic (S.I.<0.5), additive (S.I.>0.5 to 1), indifferent (S.I.>1 to <2) or antagonistic (S.I.>2), as defined by EUCAST guidelines. See European Committee for Antimicrobial Susceptibility Testing (EUCAST) of the European Society of Clinical Microbiology and Infectious Diseases (ESCMID). EUCAST Definitive Document E.Def 1.2, May 2000: Terminology relating to methods for the determination of susceptibility of bacteria to antimicrobial agents, Clin. Microbiol. Infect. Off Publ. Eur. Soc. Clin. Microbiol. Infect. Dis. 6, 503-508 (2000); Helander I. M., Mattila-Sandholm T., Fluorometric assessment of gram-negative bacterial permeabilization, J. Appl. Microbiol. 88:213-219 (2000)."}, "Bacillus sp. Troy JZ14": {"tested_on": "Bacillus sp. Troy JZ14", "experiment": "Minimum inhibitory concentration testing (microbroth dilution) and synergy index", "details": "96 well microbroth dilution, MHB, 24 hours of incubation", "description": "as §2, §3, §4, §5, §6"}, "[5]": {"tested_on": "bacterial consortium: Alcaligenes faecalis, Enterobacter aerogenes, Escherichia coli, Pseudomonas aeruginosa, Staphylococcus aureus, Microbacterium …", "experiment": "Bacterial challenge testing (industrial strength)", "details": "paint; 2.5% w/w (10,000 ppm); 7 days after challenge", "source_text": "Where industrial strength inoculations are indicated, bacterial challenge testing organisms were Alcaligenes faecalis (ATCC #25094), Enterobacter aerogenes (ATCC #13048), Escherichia coli (ATCC #11229), Pseudomonas aeruginosa (ATCC #10145), Staphylococcus aureus (ATCC #6538), Microbacterium paraoxydans (Troy Isolate), Burkholderia cenocepacia (Troy Isolate), Citrobacter werkmanii (Troy Isolate), and Acinetobacter sp. (Troy Isolate). All bacteria were blended from separate overnight cultures grown in Tryptic Soy Broth (TSB) and mixed at equal CFU via OD600 measurements, then diluted to OD600=7 (˜10^9 CFU/mL) to create the final bacterial consortium. Each mixture was prepared shortly before each inoculation. Inoculations were performed by adding […] to 50 g of the indicated test sample to give ˜10^7 CFU/g per inoculation. Viability readings were performed at the indicated intervals following each challenge by applying a small amount of the test sample onto PCA. Plates were then incubated at 32° C. for 3-5 days before being evaluated with a semi-quantitative scale. This scale estimates the approximate CFU/g by visual assessment of the colony density along the streak lines. Readings are recorded as the average of two duplicate semi-quantitative readings from “0” to “4.” Samples were mixed before every viability reading and after every inoculation.\nas §1"}, "E. coli ATCC #11229": {"tested_on": "E. coli ATCC #11229", "experiment": "Minimum inhibitory concentration testing (microbroth dilution) and synergy index", "details": "96 well microbroth dilution, MHB, 24 hours of incubation", "description": "as §2\n(§7) Biocide dilutions were performed in 2-fold increments for each assay.\nas §4, §5\nas §6, with “6, 503-508 (2000); Helander I. M., Mattila-Sandholm T., Fluorometric assessment of gram-negative bacterial permeabilization, J. Appl.” left out, “Microbiol.” for “Microbiol. 88:213-219 (2000).”"}, "S. aureus ATCC #6538": {"tested_on": "S. aureus ATCC #6538", "experiment": "Minimum inhibitory concentration testing (microbroth dilution) and synergy index", "details": "96 well microbroth dilution, MHB, 24 hours of incubation", "description": "as §2, §7, §4, §5\nas §6, with “6, 503-508 (2000); Helander I. M., Mattila-Sandholm T., Fluorometric assessment of gram-negative bacterial permeabilization, J. Appl.” left out, “Microbiol.” for “Microbiol. 88:213-219 (2000).”"}, "[6]": {"tested_on": "Pseudomonas sp. Troy JZ103", "experiment": "Minimum inhibitory concentration testing (microbroth dilution) and synergy index", "details": "96 well microbroth dilution, MHB, 24 hours of incubation", "description": "as §2, §7, §4, §5\nas §6, with “6, 503-508 (2000); Helander I. M., Mattila-Sandholm T., Fluorometric assessment of gram-negative bacterial permeabilization, J. Appl.” left out, “Microbiol.” for “Microbiol. 88:213-219 (2000).”"}, "[7]": {"tested_on": "P. aeruginosa ATCC #10145", "experiment": "Minimum inhibitory concentration testing (microbroth dilution) and synergy index", "details": "96 well microbroth dilution, MHB, 24 hours of incubation", "description": "as §2, §7, §4, §5\nas §6, with “6, 503-508 (2000); Helander I. M., Mattila-Sandholm T., Fluorometric assessment of gram-negative bacterial permeabilization, J. Appl.” left out, “Microbiol.” for “Microbiol. 88:213-219 (2000).”"}, "E. aerogenes ATCC #13048": {"tested_on": "E. aerogenes ATCC #13048", "experiment": "Minimum inhibitory concentration testing (microbroth dilution) and synergy index", "details": "96 well microbroth dilution, MHB, 24 hours of incubation", "description": "as §2, §7, §4, §5\nas §6, with “6, 503-508 (2000); Helander I. M., Mattila-Sandholm T., Fluorometric assessment of gram-negative bacterial permeabilization, J. Appl.” left out, “Microbiol.” for “Microbiol. 88:213-219 (2000).”"}, "[8]": {"tested_on": "Microbacterium sp. Troy JZ13", "experiment": "Minimum inhibitory concentration testing (microbroth dilution) and synergy index", "details": "96 well microbroth dilution, MHB, 24 hours of incubation", "description": "as §2, §7, §4, §5\nas §6, with “6, 503-508 (2000); Helander I. M., Mattila-Sandholm T., Fluorometric assessment of gram-negative bacterial permeabilization, J. Appl.” left out, “Microbiol.” for “Microbiol. 88:213-219 (2000).”"}, "[9]": {"tested_on": "Pseudomonas aeruginosa (ATCC #10145)", "experiment": "Kill curve", "details": "0.2%", "description": "Overnight cultures of Pseudomonas aeruginosa (ATCC #10145) growing in Tryptic Soy Broth were diluted to OD600=0.7 in Mueller Hinton Broth containing the indicated level of test compound. Samples containing IPBC were dosed with Polyphase PW40 (40% IPBC). Samples containing ZnO were dosed from a 50% ZnO dispersion (“1678-54”). Time points were collected by adding 1 mL of the sample into 9 mL of Dey-Engley Neutralizing Broth and performing a serial dilution in 1× Butterfield's Phosphate Buffer. Counts were obtained from pour plates in Tryptic Soy Agar after overnight incubation at 35° C."}}, "note": "Several values for one entry are separate records, joined by “and”; a condition that tells them apart may be missing. Equal values may be shown once. Residues, ends and D or L forms follow the SMILES beside them. *: point of attachment. βNA = c1ccc2cc(N*)ccc2c1"}
{"smiles": "[Cl-].[Cl-].[Mg+2]", "note": "[MgCl2]", "values": [{"measurement": "Pseudomonas growth", "setting": "[1]; control, without PAβN (FIG. 1C)", "value": "no Pseudomonas inhibition"}]}
{"smiles": "N=C(N)NCCC[C@H](NC(=O)[C@@H](N)Cc1ccccc1)C(=O)Nc1ccc2ccccc2c1", "note": "[PAβN, phenylalanine-arginine beta-napthylamide] (H-Phe-Arg-βNA)", "values": [{"measurement": "Impact on Pseudomonas growth", "setting": "[1]; 0.125-0.5 mM PAβN alone, 16 hours at 37° C.", "value": "minimal impact"}]}
{"smiles": "CC(C)C(=O)OCC(C)(C)C(O)C(C)C", "note": "(centres unmarked) [Texanol]", "values": [{"measurement": "Membrane disruption potential against Pseudomonas (NPN assay)", "setting": "[2]", "value": "highest membrane disruption potential"}]}
{"smiles": "CC(=O)OCC(COC(C)=O)OC(C)=O", "note": "[Triacetin]", "values": [{"measurement": "Improvement in the bacterial resistance of paint containing IPBC/ZnO", "setting": "[3]", "value": "some improvement"}]}
{"smiles": "[O]=[Zn]", "note": "[ZnO, zinc oxide]", "values": [{"measurement": "MIC", "setting": "[4]", "value": 2000, "unit": "ppm"}, {"measurement": "MIC", "setting": "Bacillus sp. Troy JZ14", "value": 3212, "unit": "ppm"}, {"measurement": "Kill of the inoculum", "setting": "[5]", "value": "complete kill"}, {"measurement": "MIC", "setting": "E. coli ATCC #11229", "value": 2400, "unit": "ppm"}, {"measurement": "MIC", "setting": "S. aureus ATCC #6538", "value": 250, "unit": "ppm"}, {"measurement": "MIC", "setting": "[6]", "value": 3400, "unit": "ppm"}, {"measurement": "MIC", "setting": "[7]", "value": "≥2400", "unit": "ppm"}, {"measurement": "MIC", "setting": "E. aerogenes ATCC #13048", "value": 2400, "unit": "ppm"}, {"measurement": "MIC", "setting": "[8]", "value": 3206, "unit": "ppm"}, {"measurement": "Kill curve CFU/mL", "setting": "[9]; 0 hrs", "value": "5.40E+06 CFU/mL and 7.00E+06 CFU/mL"}, {"measurement": "Kill curve CFU/mL", "setting": "[9]; 2 hrs", "value": "7.10E+06 CFU/mL and 7.30E+06 CFU/mL"}, {"measurement": "Kill curve CFU/mL", "setting": "[9]; 24 hrs", "value": "1.33E+10 CFU/mL and 1.45E+10 CFU/mL"}, {"measurement": "Kill curve CFU/mL", "setting": "[9]; 48 hrs", "value": "4.90E+09 CFU/mL and 3.80E+09 CFU/mL"}]}
